Assay results: US8802597B2, “Herbicidal pyrimidines” (E I du Pont de Nemours and Company, priority 2003, dated 2014)

Legend:
Test in all cases: Test A pre/postemergence
Assay type in all cases: in vivo
[1] = tested on: redroot pigweed (Amaranthus retroflexus)
In short: (§1)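 Visual injury scored 0–100 (0 = no effect, 100 = complete control) against untreated controls after about ten days in the greenhouse. Compounds, formulated in non-phytotoxic solvent plus surfactant, were applied preemergence as a directed soil spray and postemergence at the 1- to 2-leaf stage (2–10 cm).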

[2] = tested on: barnyardgrass (Echinochloa crus-galli)
In short: as §1

[3] = tested on: giant foxtail (Setaria faberi)
In short: as §1

[4] = tested on: velvetleaf (Abutilon theophrasti)
In short: as §1

[5] = tested on: crabgrass (Digitaria sanguinalis)
In short: as §1

[6] = tested on: morningglory (Ipomoea spp.)
In short: as §1

[7] = Postemergence, 125 g ai/ha, 0 to 100 scale (0 no effect, 100 complete control)
[8] = Postemergence, 500 g ai/ha, 0 to 100 scale (0 no effect, 100 complete control)
[9] = Preemergence, 125 g ai/ha, 0 to 100 scale where 0 is no effect and 100 is complete control, approximately ten days
[10] = Preemergence, 500 g ai/ha, 0 to 100 scale where 0 is no effect and 100 is complete control, approximately ten days
[11] = Postemergence, 250 g ai/ha, 0 to 100 scale (0 no effect, 100 complete control)
[12] = Postemergence, 1000 g ai/ha, 0 to 100 scale (0 no effect, 100 complete control)
[13] = Preemergence, 250 g ai/ha, 0 to 100 scale where 0 is no effect and 100 is complete control, approximately ten days
[14] = Preemergence, 1000 g ai/ha, 0 to 100 scale (0 no effect, 100 complete control)

CC1(C)OCC(COC(=O)c2nc(C3CC3)nc(N)c2Cl)O1 (stereo not drawn) [Compound 147]
Plant response rating, Pigweed [1, 7]: 85 | Plant response rating, Pigweed [1, 8]: 95 | Plant response rating, Pigweed [1, 9]: 80 | Plant response rating, Pigweed [1, 10]: 90 | Plant response rating, Barnyardgrass [2, 7]: 80 | Plant response rating, Barnyardgrass [2, 8]: 90 | Plant response rating, Barnyardgrass [2, 9]: 70 | Plant response rating, Barnyardgrass [2, 10]: 85 | Plant response rating, Foxtail, Giant [3, 7]: 60 | Plant response rating, Foxtail, Giant [3, 8]: 90 | Plant response rating, Foxtail, Giant [3, 9]: 40 | Plant response rating, Foxtail, Giant [3, 10]: 85 | Plant response rating, Velvetleaf [4, 7]: 80 | Plant response rating, Velvetleaf [4, 8]: 100 | Plant response rating, Velvetleaf [4, 9]: 75 | Plant response rating, Velvetleaf [4, 10]: 95 | Plant response rating, Crabgrass [5, 7]: 25 | Plant response rating, Crabgrass [5, 8]: 75 | Plant response rating, Crabgrass [5, 9]: 70 | Plant response rating, Crabgrass [5, 10]: 80 | Plant response rating, Morningglory [6, 7]: 85 | Plant response rating, Morningglory [6, 8]: 100 | Plant response rating, Morningglory [6, 9]: 95 | Plant response rating, Morningglory [6, 10]: 100

CCOC(=O)c1nc(-c2cccc(Cl)c2)nc(N)c1Cl [Compound 100]
Plant response rating, Pigweed [1, 7]: 10 | Plant response rating, Pigweed [1, 8]: 25 | Plant response rating, Pigweed [1, 9]: 20 | Plant response rating, Pigweed [1, 10]: 0 | Plant response rating, Barnyardgrass [2, 7]: 0 | Plant response rating, Barnyardgrass [2, 8]: 10 | Plant response rating, Barnyardgrass [2, 9]: 5 | Plant response rating, Barnyardgrass [2, 10]: 0 | Plant response rating, Foxtail, Giant [3, 7]: 0 | Plant response rating, Foxtail, Giant [3, 8]: 0 | Plant response rating, Foxtail, Giant [3, 9]: 0 | Plant response rating, Foxtail, Giant [3, 10]: 0 | Plant response rating, Velvetleaf [4, 7]: 50 | Plant response rating, Velvetleaf [4, 8]: 70 | Plant response rating, Velvetleaf [4, 9]: 0 | Plant response rating, Velvetleaf [4, 10]: 0 | Plant response rating, Crabgrass [5, 7]: 0 | Plant response rating, Crabgrass [5, 8]: 0 | Plant response rating, Crabgrass [5, 9]: 10 | Plant response rating, Crabgrass [5, 10]: 0 | Plant response rating, Morningglory [6, 7]: 40 | Plant response rating, Morningglory [6, 8]: 55 | Plant response rating, Morningglory [6, 9]: 0 | Plant response rating, Morningglory [6, 10]: 0

COC(=O)c1nc(-c2ccc(F)cc2)nc(N)c1Cl [Compound 43]
Plant response rating, Pigweed [1, 11]: 60 | Plant response rating, Pigweed [1, 12]: 85 | Plant response rating, Pigweed [1, 13]: 0 | Plant response rating, Pigweed [1, 14]: 75 | Plant response rating, Barnyardgrass [2, 11]: 10 | Plant response rating, Barnyardgrass [2, 12]: 20 | Plant response rating, Barnyardgrass [2, 13]: 0 | Plant response rating, Barnyardgrass [2, 14]: 10 | Plant response rating, Foxtail, Giant [3, 11]: 10 | Plant response rating, Foxtail, Giant [3, 12]: 10 | Plant response rating, Foxtail, Giant [3, 13]: 0 | Plant response rating, Foxtail, Giant [3, 14]: 10 | Plant response rating, Velvetleaf [4, 11]: 50 | Plant response rating, Velvetleaf [4, 12]: 50 | Plant response rating, Velvetleaf [4, 13]: 0 | Plant response rating, Velvetleaf [4, 14]: 20 | Plant response rating, Crabgrass [5, 11]: 10 | Plant response rating, Crabgrass [5, 12]: 30 | Plant response rating, Crabgrass [5, 13]: 0 | Plant response rating, Crabgrass [5, 14]: 10 | Plant response rating, Morningglory [6, 11]: 20 | Plant response rating, Morningglory [6, 12]: 45 | Plant response rating, Morningglory [6, 13]: 0 | Plant response rating, Morningglory [6, 14]: 45

Cc1ccc(-c2nc(N)c(Br)c(C(=O)O)n2)cc1 [Compound 89]
Plant response rating, Pigweed [1, 7]: 50 | Plant response rating, Pigweed [1, 8]: 100 | Plant response rating, Pigweed [1, 9]: 80 | Plant response rating, Pigweed [1, 10]: 100 | Plant response rating, Barnyardgrass [2, 7]: 60 | Plant response rating, Barnyardgrass [2, 8]: 85 | Plant response rating, Barnyardgrass [2, 9]: 0 | Plant response rating, Barnyardgrass [2, 10]: 50 | Plant response rating, Foxtail, Giant [3, 7]: 10 | Plant response rating, Foxtail, Giant [3, 8]: 45 | Plant response rating, Foxtail, Giant [3, 9]: 0 | Plant response rating, Foxtail, Giant [3, 10]: 10 | Plant response rating, Velvetleaf [4, 7]: 70 | Plant response rating, Velvetleaf [4, 8]: 95 | Plant response rating, Velvetleaf [4, 9]: 20 | Plant response rating, Velvetleaf [4, 10]: 75 | Plant response rating, Crabgrass [5, 7]: 0 | Plant response rating, Crabgrass [5, 8]: 10 | Plant response rating, Crabgrass [5, 9]: 0 | Plant response rating, Crabgrass [5, 10]: 60 | Plant response rating, Morningglory [6, 7]: 0 | Plant response rating, Morningglory [6, 8]: 30 | Plant response rating, Morningglory [6, 9]: 0 | Plant response rating, Morningglory [6, 10]: 0

COC(=O)c1nc(-c2ccc(C)c(F)c2)nc(N)c1Cl [Compound 86]
Plant response rating, Pigweed [1, 7]: 20 | Plant response rating, Pigweed [1, 8]: 50 | Plant response rating, Pigweed [1, 9]: 0 | Plant response rating, Pigweed [1, 10]: 5 | Plant response rating, Barnyardgrass [2, 7]: 10 | Plant response rating, Barnyardgrass [2, 8]: 30 | Plant response rating, Barnyardgrass [2, 9]: 0 | Plant response rating, Barnyardgrass [2, 10]: 0 | Plant response rating, Foxtail, Giant [3, 7]: 0 | Plant response rating, Foxtail, Giant [3, 8]: 0 | Plant response rating, Foxtail, Giant [3, 9]: 0 | Plant response rating, Foxtail, Giant [3, 10]: 0 | Plant response rating, Velvetleaf [4, 7]: 70 | Plant response rating, Velvetleaf [4, 8]: 85 | Plant response rating, Velvetleaf [4, 9]: 0 | Plant response rating, Velvetleaf [4, 10]: 10 | Plant response rating, Crabgrass [5, 7]: 0 | Plant response rating, Crabgrass [5, 8]: 0 | Plant response rating, Crabgrass [5, 9]: 0 | Plant response rating, Crabgrass [5, 10]: 0 | Plant response rating, Morningglory [6, 7]: 0 | Plant response rating, Morningglory [6, 8]: 20 | Plant response rating, Morningglory [6, 9]: 0 | Plant response rating, Morningglory [6, 10]: 0

CCOC(=O)COc1nc(-c2ccc(Cl)cc2)nc(N)c1Cl [Compound 114]
Plant response rating, Pigweed [1, 7]: 45 | Plant response rating, Pigweed [1, 8]: 55 | Plant response rating, Pigweed [1, 9]: 0 | Plant response rating, Pigweed [1, 10]: 0 | Plant response rating, Barnyardgrass [2, 7]: 0 | Plant response rating, Barnyardgrass [2, 8]: 0 | Plant response rating, Barnyardgrass [2, 9]: 0 | Plant response rating, Barnyardgrass [2, 10]: 0 | Plant response rating, Foxtail, Giant [3, 7]: 0 | Plant response rating, Foxtail, Giant [3, 8]: 0 | Plant response rating, Foxtail, Giant [3, 9]: 0 | Plant response rating, Foxtail, Giant [3, 10]: 0 | Plant response rating, Velvetleaf [4, 7]: 0 | Plant response rating, Velvetleaf [4, 8]: 5 | Plant response rating, Velvetleaf [4, 9]: 0 | Plant response rating, Velvetleaf [4, 10]: 0 | Plant response rating, Crabgrass [5, 7]: 0 | Plant response rating, Crabgrass [5, 8]: 0 | Plant response rating, Crabgrass [5, 9]: 0 | Plant response rating, Crabgrass [5, 10]: 0 | Plant response rating, Morningglory [6, 7]: 40 | Plant response rating, Morningglory [6, 8]: 55 | Plant response rating, Morningglory [6, 9]: 0 | Plant response rating, Morningglory [6, 10]: 0

CCOC(=O)c1nc(-c2ccc(OC(F)(F)F)cc2)nc(N)c1Cl [Compound 103]
Plant response rating, Pigweed [1, 7]: 0 | Plant response rating, Pigweed [1, 8]: 20 | Plant response rating, Pigweed [1, 9]: 0 | Plant response rating, Pigweed [1, 10]: 10 | Plant response rating, Barnyardgrass [2, 7]: 0 | Plant response rating, Barnyardgrass [2, 8]: 0 | Plant response rating, Barnyardgrass [2, 9]: 0 | Plant response rating, Barnyardgrass [2, 10]: 0 | Plant response rating, Foxtail, Giant [3, 7]: 0 | Plant response rating, Foxtail, Giant [3, 8]: 0 | Plant response rating, Foxtail, Giant [3, 9]: 0 | Plant response rating, Foxtail, Giant [3, 10]: 0 | Plant response rating, Velvetleaf [4, 7]: 45 | Plant response rating, Velvetleaf [4, 8]: 70 | Plant response rating, Velvetleaf [4, 9]: 0 | Plant response rating, Velvetleaf [4, 10]: 10 | Plant response rating, Crabgrass [5, 7]: 0 | Plant response rating, Crabgrass [5, 8]: 0 | Plant response rating, Crabgrass [5, 9]: 0 | Plant response rating, Crabgrass [5, 10]: 0 | Plant response rating, Morningglory [6, 7]: 0 | Plant response rating, Morningglory [6, 8]: 0 | Plant response rating, Morningglory [6, 9]: 0 | Plant response rating, Morningglory [6, 10]: 0

COC(OC)c1nc(-c2ccc(I)cc2)nc(N)c1Cl [Compound 134]
Plant response rating, Pigweed [1, 7]: 15 | Plant response rating, Pigweed [1, 8]: 30 | Plant response rating, Pigweed [1, 9]: 0 | Plant response rating, Pigweed [1, 10]: 0 | Plant response rating, Barnyardgrass [2, 7]: 0 | Plant response rating, Barnyardgrass [2, 8]: 0 | Plant response rating, Barnyardgrass [2, 9]: 0 | Plant response rating, Barnyardgrass [2, 10]: 0 | Plant response rating, Foxtail, Giant [3, 7]: 0 | Plant response rating, Foxtail, Giant [3, 8]: 0 | Plant response rating, Foxtail, Giant [3, 9]: 0 | Plant response rating, Foxtail, Giant [3, 10]: 0 | Plant response rating, Velvetleaf [4, 7]: 50 | Plant response rating, Velvetleaf [4, 8]: 55 | Plant response rating, Velvetleaf [4, 9]: 0 | Plant response rating, Velvetleaf [4, 10]: 0 | Plant response rating, Crabgrass [5, 7]: 0 | Plant response rating, Crabgrass [5, 8]: 0 | Plant response rating, Crabgrass [5, 9]: 0 | Plant response rating, Crabgrass [5, 10]: 0 | Plant response rating, Morningglory [6, 7]: 0 | Plant response rating, Morningglory [6, 8]: 0 | Plant response rating, Morningglory [6, 9]: 0 | Plant response rating, Morningglory [6, 10]: 0
